Non-standard residues stand in square brackets, D forms with d. *: point of attachment. Dkb = 3,3-dimethyl-2-ketobutyryl, CC(C)(C)C(=O)C(=O)*; Pip = O=C(O)[C@@H]1CCCCN1

Drawing on publication PMC3171579 (ACS combinatorial science, 2011), this text covers IC50 for two molecules.

In one assay the test system is cyclophilin A (CypA). Conditions: cell free assay; cited from earlier work.
A further assay addresses FK506-binding protein 12 (human, UniProt P62942 1-108). As to the kind of experiment: fluorescence polarisation. In general terms: In fluorescence polarisation assays a small probe gives low polarisation when free and higher when bound to something large.

Chain of FK506-binding protein 12 (P62942 whole entry): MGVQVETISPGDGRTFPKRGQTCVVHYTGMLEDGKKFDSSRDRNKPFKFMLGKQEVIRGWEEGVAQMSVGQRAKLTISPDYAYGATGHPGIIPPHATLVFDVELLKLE

For orientation: IC50 means the concentration that inhibits the measured activity by half. With `CC[C@H]1C[C@H](C)[C@@]2(NC1=O)O[C@@H](C[C@H](O)[C@@H](C)CC/C=C/C=C(\C)[C@@H]1C/C=C/C=C/[C@H](O)[C@H](C)[C@@H](O)[C@@H](CCC(C)=O)C(=O)N[C@@H](C(C)C)C(=O)N[C@@H](Cc3cccc(O)c3)C(=O)N3CCC[C@H](N3)C(=O)O1)[C@H](C)[C@H](O)[C@@H]2C` [Sanglifehrin A], in the assay on cyclophilin A (CypA), the IC50 is ~7 nM.

In the assay with FK506-binding protein 12, cyclo(AA[dA][Dkb][Pip][dI]Q) (also: Dkb 4 joined by ester to 3) [rapalog 2i] showed a half-maximal inhibitory concentration (IC50) of 266 µM.
